Data on six molecules can be found in US20070276045A1, “Anti-Bacterial Compounds” (priority 2004, published 2007).

In brackets after ≈: the same amount, converted by molar mass. Read-outs that look alike come from different tables or passages of the source.

In assay [1] the test system is C. xerosis DSM 20170. The assay is described as follows: Bacteriostatic activity (MIC), microtiter broth turbidity. Particulars: Corynebacterium xerosis, read-out: MIC (minimal inhibitory concentration). It is filed as cell-based. From the text: (§1) The bacteriostatic effects of the compounds of the present invention are compared with those of known anti-bacterial agents against human skin bacteria. Typical bacteria (Corynebacterium and Staphylococcus strains) isolated from the human axilla and commercially available strains are used.
(§2) The different axilla bacteria are isolated from the human axilla according to techniques known in the art, in particular according to standard microbiological practice. They are taxonomically identified by cell morphology, gram-reaction and biochemical tests included in the Api coryne test kit (BioMerieux, France). Strain Staphylococcus epidermidis Ax25 is identified by fatty acid methyl ester analysis (FAME; German type strain collection DSMZ, Germany) . […] The strains are maintained on Tryptic soy broth plates, this standard medium being supplemented with 5 g per Litre of Polyoxyethylene Sorbitan Monooleate (Tween™ 80). Plates are incubated at 36° C. for a period of 48 hours. The bacteria are then swabbed from the plates and suspended in 4 ml of Muller-Hinton broth supplemented with 100 mg of Tween™ 80 per Litre (MH-Tween) and incubated again at 36° C. for 16 hours. Following incubation the bacterial suspensions are diluted in MH-Tween to obtain a final cell density of 10^7 colony forming units per ml. These diluted suspensions of the different test organisms are distributed to different columns of a microtiter plate, 100 μl per well. The test compounds are dissolved in dimethylsulfoxide (DMSO) at various test concentrations and 2.5 μl of these different DMSO solutions are added to the different wells of the test plates. The plates are covered with plastic films and incubated for 24 h at 36° C. with shaking at 250 rpm. The turbidity developing in the microtiter platesi then examined after 24 h to determine microbial growth.

A further assay concerns Escherichia coli DSM 682. The description is as above. It is filed as cell-based. Particulars: read-out: MIC (minimal inhibitory concentration).
Description: as §1, §2

Assay [2] has as its system S. epidermidis Ax 25. The assay is described as above. It is filed as cell-based. Particulars: Staphylococcus epidermidis, read-out: MIC (minimal inhibitory concentration).
Description: as §1, §2

The subject of assay [3] is Staphylococcus aureus DSM 799. The description is as above. To be noted: read-out: MIC (minimal inhibitory concentration). It is filed as cell-based.
Description: as §1, §2

For assay [4], the system named is Corynebacterium Ax 7. The description is as above. Particulars: read-out: MIC (minimal inhibitory concentration). The assay is classed as cell-based, Corynebacterium group G.
Description: as §1, §2

Assay [5] relates to Corynebacterium Ax 15. Described as above. The assay is classed as cell-based, Corynebacterium jeikeium. To be noted: read-out: MIC (minimal inhibitory concentration).
Description: as §1, §2

Assay [6] has as its system C. xerosis DSM 20170. As to the kind of experiment: Bactericidal activity (MBC), 60 min contact. It is filed as cell-based. Particulars: Corynebacterium xerosis, DSM20170, 1 h, inoculum completely killed after 60 min incubation, read-out: MBC (minimal bactericidal concentration). From the text: (§3) The different axilla bacteria are isolated from the human axilla according to techniques known in the art, in particular according to standard microbiological practice. They are taxonomically identified by cell morphology, gram-reaction and biochemical tests included in the Api coryne test kit (BioMerieux, France). Strain Staphylococcus epidermidis Ax25 is identified by fatty acid methyl ester analysis (FAME; German type strain collection DSMZ, Germany) . Escherichia coli DSM 682, Staphylococcus aureus DSM 799, and Corynebacterium xerosis DSM 20170 are obtained from the German-type strain collection. The strains are maintained on Tryptic soy broth plates, this standard medium being supplemented with 5 g per Litre of Polyoxyethylene Sorbitan Monooleate (TweenTM 80). Plates are incubated at 36° C. for a period of 48 hours. The bacteria are then swabbed from the plates and suspended in 4 ml of Muller-Hinton broth supplemented with 100 mg of TweenTM 80 per Litre (MH-Tween) and incubated again at 36° C. for 16 hours. Following incubation the bacterial suspensions are diluted in MH-Tween to obtain a final cell density of 10^7 colony forming units per ml. These diluted suspensions of the different test organisms are distributed to different columns of a microtiter plate, 100 μl per well. The test compounds are dissolved in dimethylsulfoxide (DMSO) at various test concentrations and 2.5 μl of these different DMSO solutions are added to the different wells of the test plates. The plates are covered with plastic films and incubated for 24 h at 36° C. with shaking at 250 rpm. The turbidity developing in the microtiter […] examined after 24 h to determine microbial growth. […] The bacteria are grown, harvested and diluted under the same conditions as described in the example above and added to microtiter plates (100 μl per well), each well containing 2.5 μl of the different DMSO solutions as described above. After 60 min incubation, 0.5 μl of the bacterial culture from each well (corresponding to 5×10^3 cfu in the control treatment) is transferred to a fresh microtiter plate which contained 100 μl per well of fresh medium. The plates are covered with plastic films and incubated for 24 h at 36° C. with shaking at 250 rpm. The turbidity developing in the microtiter plates is then examined after 24 h to determine microbial growth. The minimal concentration of test compounds which completely killed the bacterial inoculum is determined as the minimal bactericidal concentration (MBC).

In assay [7] the test system is S. epidermidis Ax 25. As to the kind of experiment: Bactericidal activity (MBC), 60 min contact. The assay is classed as cell-based. To be noted: Staphylococcus epidermidis, AX25, 1 h, inoculum completely killed after 60 min incubation, read-out: MBC (minimal bactericidal concentration).
Description: as §3

Assay [8] concerns Corynebacterium Ax 7. As to the kind of experiment: Bactericidal activity (MBC), 60 min contact. Particulars: AX7, 1 h, inoculum completely killed after 60 min incubation, read-out: MBC (minimal bactericidal concentration). It is filed as cell-based, Corynebacterium group G.
Description: as §3

The subject of assay [9] is Corynebacterium Ax 15. As to the kind of experiment: Bactericidal activity (MBC), 60 min contact. The assay is classed as cell-based, Corynebacterium jeikeium. To be noted: AX15, 1 h, inoculum completely killed after 60 min incubation, read-out: MBC (minimal bactericidal concentration).
Description: as §3

Setting [10] is: Staphylococcus aureus, DSM799, 24 h.
[11] abbreviates: DSM20170, C. xerosis DSM 20170, growth inhibited by at least 80%, 24 h at 36° C.
[12] abbreviates: DSM682, Escherichia coli DSM 682, growth inhibited by at least 80%, 24 h at 36° C.
[13] abbreviates: AX25, S. epidermidis Ax 25, growth inhibited by at least 80%, 24 h at 36° C.
Setting [14] is: DSM799, Staphylococcus aureus DSM 799, growth inhibited by at least 80%, 24 h at 36° C.
Where [15] appears, read: AX7, Corynebacterium Ax 7, growth inhibited by at least 80%, 24 h at 36° C.
Where [16] appears, read: AX15, Corynebacterium Ax 15, growth inhibited by at least 80%, 24 h at 36° C.

On to `CCCCCCCCCCCC(=O)OCC(O)CO` (centres unmarked) [C1, Dodecanoic acid 2,3-dihydroxy-propyl ester, reference compound], for which the MIC was 320 µg/mL (≈ 1.17 mM) with C. xerosis DSM 20170 [1] (DSM20170, 24 h); over 5000 µg/mL with Escherichia coli DSM 682 (Escherichia coli, DSM682, 24 h); under 80 µg/mL with S. epidermidis Ax 25 [2] (AX25, 24 h); 80 µg/mL (≈ 0.292 mM) in assay [3] (setting [10]); 160 µg/mL (≈ 0.583 mM) in the assay on Corynebacterium Ax 7 [4] (Corynebacterium, AX7, 24 h); 1250 µg/mL (≈ 4.56 mM) in the assay on Corynebacterium Ax 15 [5] (Corynebacterium, AX15, 24 h).
As for `CCCCC(CC)COCC(O)CO` (centres unmarked) [C2, 3-(2-Ethyl-hexyloxy)-propane-1,2-diol, reference compound], the MIC with C. xerosis DSM 20170 [1] (DSM20170, 24 h) was 630 µg/mL (≈ 3.08 mM); with Escherichia coli DSM 682 (Escherichia coli, DSM682, 24 h), 630 µg/mL (≈ 3.08 mM); in the assay with S. epidermidis Ax 25 [2] (AX25, 24 h) it was 1250 µg/mL (≈ 6.12 mM); in assay [3] (setting [10]), 630 µg/mL (≈ 3.08 mM); in the assay with Corynebacterium Ax 7 [4] (Corynebacterium, AX7, 24 h), 1250 µg/mL (≈ 6.12 mM); in the assay with Corynebacterium Ax 15 [5] (Corynebacterium, AX15, 24 h) it was 1250 µg/mL (≈ 6.12 mM).
For `CC(C)=CCCC(C)=CCCC(C)=CCO` [C3, Farnesol, reference compound], the MIC in the assay on C. xerosis DSM 20170 [1] (setting [11]) is 80 µg/mL (≈ 0.36 mM); in the assay on Escherichia coli DSM 682 (setting [12]), over 10000 µg/mL; with S. epidermidis Ax 25 [2] (setting [13]) it was 160 µg/mL (≈ 0.72 mM); in assay [3] (setting [14]), 160 µg/mL (≈ 0.72 mM); with Corynebacterium Ax 7 [4] (setting [15]) it was 140 µg/mL (≈ 0.63 mM); with Corynebacterium Ax 15 [5] (setting [16]), 160 µg/mL (≈ 0.72 mM).
In the case of `Oc1cc(Cl)ccc1Oc1ccc(Cl)cc1Cl` [C4, Triclosan, reference compound], the MIC amounted to 15 µg/mL (≈ 0.0518 mM) with C. xerosis DSM 20170 [1] (DSM20170, 24 h); 5 µg/mL (≈ 0.0173 mM) in the assay on Escherichia coli DSM 682 (Escherichia coli, DSM682, 24 h); 0.15 µg/mL (≈ 0.000518 mM) in the assay with S. epidermidis Ax 25 [2] (AX25, 24 h); 5 µg/mL (≈ 0.0173 mM) in assay [3] (setting [10]); 30 µg/mL (≈ 0.104 mM) in the assay on Corynebacterium Ax 7 [4] (Corynebacterium, AX7, 24 h); 30 µg/mL (≈ 0.104 mM) in the assay with Corynebacterium Ax 15 [5] (Corynebacterium, AX15, 24 h).
Take `CC(COCC(=O)O)Cc1ccc(C(C)(C)C)cc1` (centres unmarked) [compound 1, [3-(4-tert.-Butyl-phenyl)-2-methyl-propoxy]-acetic acid]: the MIC with C. xerosis DSM 20170 [1] (setting [11]) was 313 µg/mL (≈ 1.18 mM); in the assay on Escherichia coli DSM 682 (setting [12]) it was 2500 µg/mL (≈ 9.46 mM); with S. epidermidis Ax 25 [2] (setting [13]), 625 µg/mL (≈ 2.36 mM); in [3] (setting [14]), 625 µg/mL (≈ 2.36 mM); in the assay on Corynebacterium Ax 7 [4] (setting [15]), 625 µg/mL (≈ 2.36 mM); with Corynebacterium Ax 15 [5] (setting [16]), 1250 µg/mL (≈ 4.73 mM). Moreover, the MBC is 2500 µg/mL (≈ 9.46 mM) in the assay on C. xerosis DSM 20170 [6], at least 5000 µg/mL in the assay with S. epidermidis Ax 25 [7], 2500 µg/mL (≈ 9.46 mM) with Corynebacterium Ax 7 [8] and at least 5000 µg/mL in the assay on Corynebacterium Ax 15 [9].
As for `CCCCC(CC)COCC(=O)O` (centres unmarked) [compound 4, (2-Ethyl-hexyloxy)-acetic acid], the MIC in the assay with C. xerosis DSM 20170 [1] (setting [11]) was determined as 884 µg/mL (≈ 4.7 mM); with Escherichia coli DSM 682 (setting [12]), 2500 µg/mL (≈ 13.3 mM); with S. epidermidis Ax 25 [2] (setting [13]), 625 µg/mL (≈ 3.32 mM); in assay [3] (setting [14]) it was 625 µg/mL (≈ 3.32 mM); in the assay on Corynebacterium Ax 7 [4] (setting [15]), 1250 µg/mL (≈ 6.64 mM); in the assay with Corynebacterium Ax 15 [5] (setting [16]), 1250 µg/mL (≈ 6.64 mM). Further, the MBC with C. xerosis DSM 20170 [6] was at least 5000 µg/mL; in the assay with S. epidermidis Ax 25 [7] it was at least 5000 µg/mL; with Corynebacterium Ax 7 [8] it was 2500 µg/mL (≈ 13.3 mM); in the assay with Corynebacterium Ax 15 [9], at least 5000 µg/mL.
